This is an account of results in patent US20080194619A1, “Anti-Hiv Quinuclidine Compounds” (priority 2004, published 2008).

Where two headings read alike, the source gives them in different places.

In one series the test system is HIV-1 IIIB. The series is described as follows: GenPhar AV-Finder-HIV Drug Discovery Assay, HIV-1 IIIB replication in HeLa indicator cells. It is filed as cell-based. The conditions noted are these: for IC50: read-out: IC50 of HIV replication inhibition. The text has this: In order to study the viral replication in vitro, the GenPhar AV-Finder™-HIV Drug Discovery Assay was used, a novel technology that consists of two components: (1) a cloned, continuous-passage HeLa cell line containing an HIV-1 tat-activated molecular switch and a Green Fluorescent Protein reporter gene and (2) a recombinant adenovirus (rAd) vector containing the genes for all three of the HIV-1 receptor/co-receptors (CD4, CXCR4, and CCR5) to transduce into HeLa cells and convert them into highly susceptible HIV-1 indicator cells for use in the assay. The indicator cells over-express the HIV-1 receptor genes and are readily infected with any HIV-1 strain or isolate. […] Infected cells fluoresce brightly so that the inhibition of virus replication by potential antiviral drugs can be readily detected and quantified using standard laboratory plate reader technology.
(§1) Detector plates are set up at day 1 by adding HeLa cells (3000/well) to the adenovirus AD-3R in DMEM containing CCS in 96-well plates and incubated at 37° C. under 95% humidity and 5% CO2 for 2 days. […] At day 4, the medium was replaced by fresh medium containing the corresponding concentration of the compounds of interest. The infectivity was assessed by measuring the fluorescence on each well at day 7 ([…]). […] At day 5, the medium was replaced by fresh medium containing the corresponding concentration of compounds of interest and the infectivity was assessed by measuring the fluorescence on each well at day 8. Results are expressed as percentage of inhibition of the viral replication.
(4-amino-phenyl)-(1-aza-bicyclo[2.2.2]oct-4-yl)-methanone (FIG. 1) was used either alone dissolved in water (SP003) or in an aqueous formulation (SP003A) containing zinc sulfate heptahydrate and ascorbic acid at the ratio of 26.6/1/1.6 (for example 200 mg SP003 with 7.5 mg of zinc sulfate heptahydrate and 12.5 mg of ascorbic acid; Xu, J. et al., J. Pharmacol. Exper. Ther., (2003) 307:1148-1157.

A further series concerns HeLa cells. In words: MTT cytotoxicity assay (mitochondrial integrity).
Another series has as its system HIV MDR 769 strain. The series is described as follows: AV-Finder-HIV assay, multi-drug resistant HIV MDR 769 strain replication in HeLa cells. It is filed as cell-based.
Description: In order to study the viral replication in vitro, the GenPhar AV-Finder™-HIV Drug Discovery Assay was used, a novel technology that consists of two components: (1) a cloned, continuous-passage HeLa cell line containing an HIV-1 tat-activated molecular switch and a Green Fluorescent Protein reporter gene and (2) a recombinant adenovirus (rAd) vector containing the genes for all three of the HIV-1 receptor/co-receptors (CD4, CXCR4, and CCR5) to transduce into HeLa cells and convert them into highly susceptible HIV-1 indicator cells for use in the assay. The indicator cells over-express the HIV-1 receptor genes and are readily infected with any HIV-1 strain or isolate. All HIV-1 strains tested thus far, regardless of co-receptor preference, and all subtypes or classes of HIV-1 will infect these indicator cells. Infected cells fluoresce brightly so that the inhibition of virus replication by potential antiviral drugs can be readily detected and quantified using standard laboratory plate reader technology.
as §1

As a reminder, the IC50 is the concentration that inhibits the measured activity by half. Regarding `Cc1cn([C@H]2C[C@H](N=[N+]=[N-])[C@@H](CO)O2)c(=O)[nH]c1=O` [AZT, reference compound], in the series on HIV-1 IIIB (24 hours pre-medication), the “curve plateau, inhibition of viral replication” value is on record as “around 40%”. Moreover, the IC50 is 30 nM in the series with HIV-1 IIIB (48 hours pretreatment, FIG. 4) and 161000 nM with HeLa cells (read-out: toxicity IC50 (MTT cytotoxicity assay)). Also, in the series on HIV MDR 769 strain (without pre-medication, FIG. 5), the “inhibition of HIV MDR 769 strain replication (in words)” value was “not effective”.
Turning to `Nc1ccc(C(=O)C23CCN(CC2)CC3)cc1` [SP003, (4-Amino-phenyl)-(1-aza-bicyclo[2.2.2]oct-4-yl)-methanone], the “inhibition of HIV replication” value with HIV-1 IIIB (48 hours pretreatment, FIG. 4) turned out to be 50%. Besides, the IC50 with HIV-1 IIIB (Human immunodeficiency virus 1, IIIB, HeLa, 48 hours pretreatment, FIG. 4) is 0.03 nM; with HIV MDR 769 strain (Human immunodeficiency virus 1, HeLa, read-out: IC50 of HIV MDR 769 viral replication inhibition) it was 0.01 nM. In addition, the “inhibition of HIV-1 IIIB viral replication (in words)” value with HIV-1 IIIB (no pre-medication, HeLa cells, FIG. 2) is listed as “higher efficiency than the classical antiviral agent ddI”. In the series with HIV-1 IIIB (no pre-medication, concentrations in the nanomolar range), the “inhibition of HIV-1 IIIB replication” value is reported as “up to 50%”. The “cell toxicity (MTT cytotoxicity assay)” value with HeLa cells (all concentrations tested, up to 100 μM) is “devoid of cell toxicity”. The “inhibition of HIV MDR 769 viral replication” value in the series with HIV MDR 769 strain (without pre-medication, FIG. 5) was found to be 60%.
As for `O=c1[nH]cnc2c1ncn2[C@H]1CC[C@@H](CO)O1` [ddI], half-maximal inhibition in the series with HeLa cells (IC50) was put at 89000 nM.
